# In ChEMBL document CHEMBL3727364, “Resorcinol n-aryl amide compounds, for use as pyruvate dehydrogenase kinase inhibitors” (2015):
# Biological target: [Pyruvate dehydrogenase (acetyl-transferring)] kinase isozyme 1, mitochondrial (Homo sapiens, UniProt Q15118)
# Test: Binding affinity to pyruvate dehydrogenase kinase 1 (unknown origin) incubated for 90 mins by VER-00160364 probe based fluorescence polarization assay
# [Pyruvate dehydrogenase (acetyl-transferring)] kinase isozyme 1, mitochondrial, sequence (Q15118 whole entry): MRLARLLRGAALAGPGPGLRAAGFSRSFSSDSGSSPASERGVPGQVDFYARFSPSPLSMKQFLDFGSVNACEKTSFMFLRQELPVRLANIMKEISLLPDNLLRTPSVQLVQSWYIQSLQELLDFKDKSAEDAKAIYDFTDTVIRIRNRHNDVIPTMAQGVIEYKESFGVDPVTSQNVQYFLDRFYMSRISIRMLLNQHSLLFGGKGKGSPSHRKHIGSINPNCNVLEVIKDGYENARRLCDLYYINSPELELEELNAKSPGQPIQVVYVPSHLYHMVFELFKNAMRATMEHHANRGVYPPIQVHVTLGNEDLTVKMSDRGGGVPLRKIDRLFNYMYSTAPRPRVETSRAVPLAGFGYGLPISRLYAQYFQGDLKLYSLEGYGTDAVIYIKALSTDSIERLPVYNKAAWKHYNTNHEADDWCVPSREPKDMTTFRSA
row,Structure (SMILES),IC50
1,CC(=O)Nc1ccc(N(Cc2ccccc2)C(=O)c2ccc(O)cc2O)cc1,1000 nM
2,Cc1cc(S(=O)(=O)N2CCC(F)(F)CC2)cnc1-c1ccc(N(Cc2ccccc2)C(=O)c2ccc(O)cc2O)cc1,1000 nM
3,Cc1ccc(Cl)cc1-c1ccc(N(Cc2ccccc2)C(=O)c2ccc(O)cc2O)cc1,1000 nM
4,CN(Cc1cccs1)C(=O)c1ccc(N(Cc2ccsc2)C(=O)c2ccc(O)cc2O)cc1,100 nM
5,O=C(c1ccc(O)cc1O)N(Cc1cccnc1)c1ccc(-c2ccncc2C(F)(F)F)cc1,100 nM
6,O=C(c1ccc(O)cc1O)N(Cc1ccccc1)c1ccc(-c2nc(Cl)nc3ccsc23)cc1,10000 nM
7,Cc1cc(S(=O)(=O)N2CCOCC2)cnc1-c1ccc(N(Cc2ccccc2)C(=O)c2ccc(O)cc2O)cc1,100 nM
8,Cc1cc(N)cnc1-c1ccc(N(Cc2ccccc2)C(=O)c2ccc(O)cc2O)cc1,100 nM
9,O=C(c1ccc(O)cc1O)N(Cc1cccnc1)c1ccc(-c2ccnc3ccsc23)cc1,100 nM
10,CN(Cc1cccc(C(F)(F)F)c1)C(=O)c1ccc(N(Cc2ccccc2)C(=O)c2ccc(O)cc2O)cc1,10000 nM
11,Cc1ccc(CN(C(=O)c2cc(Cl)c(O)cc2O)c2ccc(C(=O)N(C)C)cc2)cc1,100 nM
12,Cc1cc(S(=O)(=O)NCc2cccnc2)cnc1-c1ccc(N(Cc2ccsc2)C(=O)c2ccc(O)cc2O)cc1,10 nM
13,O=C(NC1CC1)c1ccc(N(Cc2ccccc2)C(=O)c2ccc(O)cc2O)cc1,1000 nM
14,CN(Cc1cccc2ccccc12)C(=O)c1ccc(N(Cc2ccsc2)C(=O)c2ccc(O)cc2O)cc1,1000 nM
15,Cc1cc(S(=O)(=O)NCc2cccnc2)cnc1-c1ccc(N(Cc2cccnc2)C(=O)c2ccc(O)cc2O)cc1,10 nM
16,Cc1cccnc1-c1ccc(N(Cc2cccnc2)C(=O)c2ccc(O)cc2O)cc1,100 nM
17,N#Cc1cc(Cl)nc(-c2ccc(N(Cc3cccnc3)C(=O)c3ccc(O)cc3O)cc2)c1,100 nM
18,CNC(=O)c1ccc(N(Cc2ccccc2)C(=O)c2ccc(O)cc2O)cc1,1000 nM
19,Nc1nccc(-c2ccc(N(Cc3cccnc3)C(=O)c3ccc(O)cc3O)cc2)n1,1000 nM
20,CN(Cc1ccnc2ccccc12)C(=O)c1ccc(N(Cc2cccnc2)C(=O)c2ccc(O)cc2O)cc1,100 nM
21,Cc1cccnc1-c1ccc(N(Cc2ccccc2)C(=O)c2cc(Cl)c(O)cc2O)cc1,1000 nM
22,O=C(Nc1ccc(N(Cc2ccccc2)C(=O)c2ccc(O)cc2O)cc1)Nc1cccnc1,1000 nM
23,Cc1cc(-c2ccc(N(Cc3ccccc3)C(=O)c3ccc(O)cc3O)cc2)nnc1Cl,10000 nM
24,Cc1cc(S(=O)(=O)NCc2ccccn2)cnc1-c1ccc(N(Cc2ccccc2)C(=O)c2ccc(O)cc2O)cc1,10 nM
25,O=C(c1ccc(O)cc1O)N(Cc1cccnc1)c1ccc(-c2nc(Cl)nc3c2COCC3)cc1,100 nM
26,CN(C)C(=O)c1ccc(N(Cc2nc3ccccc3[nH]2)C(=O)c2cc(Cl)c(O)cc2O)cc1,1000 nM

row,Structure (SMILES),IC50
1,Cc1cc(N)ncc1-c1ccc(N(Cc2ccccc2)C(=O)c2ccc(O)cc2O)cc1,1000 nM
2,Cc1cc(C(=O)Nc2ccc(N(Cc3ccccc3)C(=O)c3ccc(O)cc3O)cc2)no1,10000 nM
3,Cc1cc2ccccc2nc1-c1ccc(N(Cc2ccsc2)C(=O)c2ccc(O)cc2O)cc1,100 nM
4,CCc1nccnc1-c1ccc(N(Cc2ccccc2)C(=O)c2ccc(O)cc2O)cc1,100 nM
5,CN(C)C(=O)c1ccc(N(Cc2ccsc2)C(=O)c2ccc(O)cc2O)cc1,10 nM
6,CN(Cc1ccc2c(ccn2C)c1)C(=O)c1ccc(N(Cc2ccsc2)C(=O)c2ccc(O)cc2O)cc1,1000 nM
7,Cc1c(Cl)nc(Cl)nc1-c1ccc(N(Cc2cccnc2)C(=O)c2ccc(O)cc2O)cc1,10 nM
8,Cc1cc2cccc(C)c2nc1-c1ccc(N(Cc2cccnc2)C(=O)c2ccc(O)cc2O)cc1,1000 nM
9,O=C(c1ccc(O)cc1O)N(Cc1ccsc1)c1ccc(-c2nc(Cl)nc3c2COCC3)cc1,100 nM
10,CN(Cc1ccc2ncccc2c1)C(=O)c1ccc(N(Cc2ccccc2)C(=O)c2ccc(O)cc2O)cc1,100 nM
11,COc1ccc(CN(C)C(=O)c2ccc(N(Cc3ccccc3)C(=O)c3ccc(O)cc3O)cc2)cc1,100 nM
12,COc1cc(-c2ccc(N(Cc3ccsc3)C(=O)c3ccc(O)cc3O)cc2)cnc1OC,10000 nM
13,Cc1nc(-c2ccc(N(Cc3ccsc3)C(=O)c3ccc(O)cc3O)cc2)c2ccccc2n1,1000 nM
14,CCNCc1ccc(CN(C(=O)c2ccc(O)cc2O)c2ccc(-c3nc4ccccc4cc3C)cc2)cc1,100 nM
15,CN(C)C(=O)c1ccc(N(Cc2cccc3c2cnn3C)C(=O)c2ccc(O)cc2O)cc1,100 nM
16,O=C(c1ccc(O)cc1O)N(Cc1ccccc1)c1ccc(-c2nc(Cl)nn3cccc23)cc1,1000 nM
17,O=C(c1ccc(O)cc1O)N(Cc1cccnc1)c1ccc(-c2ccc(N3CCOCC3)nn2)cc1,1000 nM
18,O=C(Nc1ccc(N(Cc2ccccc2)C(=O)c2ccc(O)cc2O)cc1)NC1CCCC1,10000 nM
19,O=C(c1ccc(O)cc1O)N(Cc1ccsc1)c1ccc(-c2ccnc3ccccc23)cc1,1000 nM
20,Cc1ccnnc1-c1ccc(N(Cc2ccccc2)C(=O)c2ccc(O)cc2O)cc1,100 nM
21,CCCc1cncnc1-c1ccc(N(Cc2ccccc2)C(=O)c2ccc(O)cc2O)cc1,1000 nM
22,Cc1nccn1-c1ccc(-c2ccc(N(Cc3ccccc3)C(=O)c3ccc(O)cc3O)cc2)nn1,10 nM
23,O=C(c1ccc(N(Cc2cccnc2)C(=O)c2ccc(O)cc2O)cc1)N1CCC(O)CC1,100 nM
24,O=C(c1ccc(O)cc1O)N(Cc1ccsc1)c1ccc(-c2nc(C(F)(F)F)ccc2C(F)(F)F)cc1,1000 nM
25,Cc1cc(S(=O)(=O)N2CCCCC2)cnc1-c1ccc(N(Cc2ccsc2)C(=O)c2ccc(O)cc2O)cc1,10 nM
26,O=C(c1ccc(O)cc1O)N(Cc1cccnc1)c1ccc(-c2ccc(N3CCCC3)nn2)cc1,100 nM

# Continued by falling IC50, values first:
row,IC50,Structure (SMILES)
1,10000 nM,O=C(Nc1ccc(N(Cc2ccccc2)C(=O)c2ccc(O)cc2O)cc1)NC1CCNCC1
2,10000 nM,CCNc1cc(-c2ccc(N(Cc3ccsc3)C(=O)c3ccc(O)cc3O)cc2)ncn1
3,10000 nM,COc1cc(-c2ccc(N(Cc3ccsc3)C(=O)c3ccc(O)cc3O)cc2)ncn1
4,10000 nM,CCOC(=O)c1nc(-c2ccc(N(Cc3ccccc3)C(=O)c3ccc(O)cc3O)cc2)c2ccccc2n1
5,1000 nM,O=C(c1ccc(O)cc1O)N(Cc1ccccc1)c1ccc(-c2nncc3ccccc23)cc1
6,1000 nM,O=C(c1ccc(O)cc1O)N(Cc1ccccc1)c1ccc(-c2nc3ccc(Cl)cc3cc2CO)cc1
7,1000 nM,Cc1cnc(Cl)nc1-c1ccc(N(C(=O)c2ccc(O)cc2O)C(C)c2ccccc2)cc1 (stereo unspecified)
8,1000 nM,Nc1nccc(-c2ccc(N(Cc3ccsc3)C(=O)c3ccc(O)cc3O)cc2)n1
9,1000 nM,O=C(c1ccc(O)cc1O)N(Cc1ccccc1)c1ccc(-c2nc(Cl)nc3c2COCC3)cc1
10,1000 nM,Cc1cc2cc(F)ccc2nc1-c1ccc(N(Cc2ccsc2)C(=O)c2ccc(O)cc2O)cc1
11,1000 nM,Cc1nc(C(F)(F)F)nc(-c2ccc(N(Cc3ccccc3)C(=O)c3ccc(O)cc3O)cc2)c1C
12,1000 nM,Cn1ccnc1-c1ccc(N(Cc2ccccc2)C(=O)c2ccc(O)cc2O)cc1
13,1000 nM,Cc1cc(-c2ccc(N(Cc3cccnc3)C(=O)c3ccc(O)cc3O)cc2)nnc1Cl
14,1000 nM,C#Cc1ncc(C)c(-c2ccc(N(Cc3ccccc3)C(=O)c3ccc(O)cc3O)cc2)n1
15,1000 nM,O=C(c1ccc(O)cc1O)N(Cc1cccnc1)c1ccc(-c2nccc3occc23)cc1
16,1000 nM,COc1ccc(CN(C)C(=O)c2ccc(N(Cc3cccc(C)c3)C(=O)c3cc(Cl)c(O)cc3O)cc2)cc1
17,1000 nM,CCOc1ccc2nc(-c3ccc(N(Cc4ccsc4)C(=O)c4ccc(O)cc4O)cc3)c(C)cc2c1
18,1000 nM,COc1cc(-c2ccc(N(Cc3cccnc3)C(=O)c3ccc(O)cc3O)cc2)ncn1
19,1000 nM,C[C@H](c1ccccc1)N(C(=O)c1cc(Cl)c(O)cc1O)c1ccc(C(=O)N(C)C)cc1
20,1000 nM,COc1cc2ncnc(-c3ccc(N(Cc4cccnc4)C(=O)c4ccc(O)cc4O)cc3)c2cc1OC

row,IC50,Structure (SMILES)
1,100 nM,Cc1cnc(Cl)nc1-c1ccc(N(Cc2ccccc2)C(=O)c2ccc(O)cc2O)cc1F
2,100 nM,Cc1cc(S(=O)(=O)NCc2ccccc2)cnc1-c1ccc(N(Cc2ccccc2)C(=O)c2ccc(O)cc2O)cc1
3,100 nM,CN(Cc1cccs1)C(=O)c1ccc(N(Cc2cccnc2)C(=O)c2ccc(O)cc2O)cc1
4,100 nM,Cc1ccnnc1-c1ccc(N(Cc2cccnc2)C(=O)c2ccc(O)cc2O)cc1
5,100 nM,Cc1ncc(C)c(-c2ccc(N(Cc3ccccc3)C(=O)c3cc(Cl)c(O)cc3O)cc2)n1
6,100 nM,Cc1cc2ccccc2nc1-c1ccc(N(Cc2ccc(-c3ccccc3)cc2)C(=O)c2ccc(O)cc2O)cc1
7,100 nM,CN(Cc1ccnc2ccccc12)C(=O)c1ccc(N(Cc2ccsc2)C(=O)c2ccc(O)cc2O)cc1
8,100 nM,Cc1nccn1-c1ccc(-c2ccc(N(Cc3cccnc3)C(=O)c3ccc(O)cc3O)cc2)nn1
9,100 nM,O=C(c1ccc(O)cc1O)N(Cc1ccccc1)c1ccc(-c2ncnc3ccc(Cl)cc23)cc1
10,100 nM,Cc1cnc(N(C)C)nc1-c1ccc(N(Cc2ccccc2)C(=O)c2ccc(O)cc2O)cc1
11,10 nM,Cc1cc(S(=O)(=O)NCCCC(N)=O)cnc1-c1ccc(N(Cc2cccnc2)C(=O)c2ccc(O)cc2O)cc1
12,10 nM,Cc1nc(C(F)(F)F)nc(-c2ccc(N(Cc3cccnc3)C(=O)c3ccc(O)cc3O)cc2)c1C
13,10 nM,Cc1cc(S(=O)(=O)NCc2ccncc2)cnc1-c1ccc(N(Cc2cccnc2)C(=O)c2ccc(O)cc2O)cc1
14,10 nM,Cc1cc(S(=O)(=O)N2CCN(C)CC2)cnc1-c1ccc(N(Cc2ccccc2)C(=O)c2ccc(O)cc2O)cc1
15,10 nM,O=C(c1ccc(O)cc1O)N(Cc1ccccc1)c1ccc(-c2nc(Cl)c3c(n2)CCSC3)cc1
16,10 nM,CC(=O)N1CCN(S(=O)(=O)c2cnc(-c3ccc(N(Cc4ccsc4)C(=O)c4ccc(O)cc4O)cc3)c(C)c2)CC1
17,10 nM,Cc1cnc(Cl)nc1-c1ccc(N(Cc2ccccc2)C(=O)c2cc(Cl)c(O)cc2O)cc1
18,10 nM,Cc1cc2ccccc2nc1-c1ccc(N(Cc2cccc(F)c2)C(=O)c2ccc(O)cc2O)cc1
19,10 nM,O=C(c1ccc(O)cc1O)N(Cc1cccnc1)c1ccc(-c2nc(C(F)(F)F)ccc2C(F)(F)F)cc1
